Read-outs that look alike come from different tables or passages of the source.
B1: TrzN Wildtype: Wild-type TrzN triazine hydrolase, SEQ ID NO:1; codon optimised open reading frame TrzNco, SEQ ID NO:2 (protein, listed as Arthrobacter aurescens)
chain: MILIRGLTRVITFDDQERELEDADILIDGPKIVAVGKDLSDRSVSRTIDGRGMIALPGLINSHQHLYEGAMRAIPQLERVTMASWLEGVLTRSAGWWRDGKFGPDVIREVARAVLLESLLGGITTVADQHLFFPGATADSYIDATIEAATDLGIRFHAARSSMTLGKSEGGFCDDLFVEPVDRVVQHCLGLIDQYHEPEPFGMVRIALGPCGVPYDKPELFEAFAQMAADYDVRLHTHFYEPLDAGMSDHLYGMTPWRFLEKHGWASDRVWLAHAVVPPREEIPEFADAGVAIAHLIAPDLRLGWGLAPIREYLDAGITVGFGTTGSASNDGGNLLGDLRLAALAHRPADPNEPEKWLSARELLRMATRGSAECLGRPDLGVLEEGRAADIACWRLDGVDRVGVHDPAIGLIMTGLSDRASLVVVNGQVLVENERPVLADLERIVANTTALIPKNL
B2: P210A (protein)
chain: MILIRGLTRVITFDDQERELEDADILIDGPKIVAVGKDLSDRSVSRTIDGRGMIALPGLINSHQHLYEGAMRAIPQLERVTMASWLEGVLTRSAGWWRDGKFGPDVIREVARAVLLESLLGGITTVADQHLFFPGATADSYIDATIEAATDLGIRFHAARSSMTLGKSEGGFCDDLFVEPVDRVVQHCLGLIDQYHEPEPFGMVRIALGACGVPYDKPELFEAFAQMAADYDVRLHTHFYEPLDAGMSDHLYGMTPWRFLEKHGWASDRVWLAHAVVPPREEIPEFADAGVAIAHLIAPDLRLGWGLAPIREYLDAGITVGFGTTGSASNDGGNLLGDLRLAALAHRPADPNEPEKWLSARELLRMATRGSAECLGRPDLGVLEEGRAADIACWRLDGVDRVGVHDPAIGLIMTGLSDRASLVVVNGQVLVENERPVLADLERIVANTTALIPKNL
B3: L335M (protein)
chain: MILIRGLTRVITFDDQERELEDADILIDGPKIVAVGKDLSDRSVSRTIDGRGMIALPGLINSHQHLYEGAMRAIPQLERVTMASWLEGVLTRSAGWWRDGKFGPDVIREVARAVLLESLLGGITTVADQHLFFPGATADSYIDATIEAATDLGIRFHAARSSMTLGKSEGGFCDDLFVEPVDRVVQHCLGLIDQYHEPEPFGMVRIALGPCGVPYDKPELFEAFAQMAADYDVRLHTHFYEPLDAGMSDHLYGMTPWRFLEKHGWASDRVWLAHAVVPPREEIPEFADAGVAIAHLIAPDLRLGWGLAPIREYLDAGITVGFGTTGSASNDGGNMLGDLRLAALAHRPADPNEPEKWLSARELLRMATRGSAECLGRPDLGVLEEGRAADIACWRLDGVDRVGVHDPAIGLIMTGLSDRASLVVVNGQVLVENERPVLADLERIVANTTALIPKNL
B4: D38N (protein)
chain: MILIRGLTRVITFDDQERELEDADILIDGPKIVAVGKNLSDRSVSRTIDGRGMIALPGLINSHQHLYEGAMRAIPQLERVTMASWLEGVLTRSAGWWRDGKFGPDVIREVARAVLLESLLGGITTVADQHLFFPGATADSYIDATIEAATDLGIRFHAARSSMTLGKSEGGFCDDLFVEPVDRVVQHCLGLIDQYHEPEPFGMVRIALGPCGVPYDKPELFEAFAQMAADYDVRLHTHFYEPLDAGMSDHLYGMTPWRFLEKHGWASDRVWLAHAVVPPREEIPEFADAGVAIAHLIAPDLRLGWGLAPIREYLDAGITVGFGTTGSASNDGGNLLGDLRLAALAHRPADPNEPEKWLSARELLRMATRGSAECLGRPDLGVLEEGRAADIACWRLDGVDRVGVHDPAIGLIMTGLSDRASLVVVNGQVLVENERPVLADLERIVANTTALIPKNL
B5: S161G (protein)
chain: MILIRGLTRVITFDDQERELEDADILIDGPKIVAVGKDLSDRSVSRTIDGRGMIALPGLINSHQHLYEGAMRAIPQLERVTMASWLEGVLTRSAGWWRDGKFGPDVIREVARAVLLESLLGGITTVADQHLFFPGATADSYIDATIEAATDLGIRFHAARGSMTLGKSEGGFCDDLFVEPVDRVVQHCLGLIDQYHEPEPFGMVRIALGPCGVPYDKPELFEAFAQMAADYDVRLHTHFYEPLDAGMSDHLYGMTPWRFLEKHGWASDRVWLAHAVVPPREEIPEFADAGVAIAHLIAPDLRLGWGLAPIREYLDAGITVGFGTTGSASNDGGNLLGDLRLAALAHRPADPNEPEKWLSARELLRMATRGSAECLGRPDLGVLEEGRAADIACWRLDGVDRVGVHDPAIGLIMTGLSDRASLVVVNGQVLVENERPVLADLERIVANTTALIPKNL
B6: T91S (protein)
chain: MILIRGLTRVITFDDQERELEDADILIDGPKIVAVGKDLSDRSVSRTIDGRGMIALPGLINSHQHLYEGAMRAIPQLERVTMASWLEGVLSRSAGWWRDGKFGPDVIREVARAVLLESLLGGITTVADQHLFFPGATADSYIDATIEAATDLGIRFHAARSSMTLGKSEGGFCDDLFVEPVDRVVQHCLGLIDQYHEPEPFGMVRIALGPCGVPYDKPELFEAFAQMAADYDVRLHTHFYEPLDAGMSDHLYGMTPWRFLEKHGWASDRVWLAHAVVPPREEIPEFADAGVAIAHLIAPDLRLGWGLAPIREYLDAGITVGFGTTGSASNDGGNLLGDLRLAALAHRPADPNEPEKWLSARELLRMATRGSAECLGRPDLGVLEEGRAADIACWRLDGVDRVGVHDPAIGLIMTGLSDRASLVVVNGQVLVENERPVLADLERIVANTTALIPKNL

Columns and labels:
[1] = read-out: Kd for zinc; cited from earlier work
[2] = tested on: TrzN cc3.2; test: Substrate range: hydrolysis of triazines by purified TrzN cc3.2 (loss of absorbance at 264 nm); format: biochemical; details: for Hydrolysis by TrzN cc3.2: purified enzyme; for Relative Activity in TrzN cc3.2: specific activity at 100 μM substrate and 41 nM TrzN cc3.2, ametryn = 1
[3] = tested on: Apo-TrzNcc3.2; test: Saturation of Apo-TrzNcc3.2 with Zn^2+; format: binding
[4] = tested on: TrzN; details: from Shapir et al. (2006); ametryn = 1; cited from earlier work
[5] = Atrazine clearing plate assay, low-level constitutive vector pCS150 in three E. coli strains; format: cell-based; details: E. coli JM109, DH10β and BL21 λDE3, 37° C.
Method: Random and site-saturated libraries were screened using LB agar plates supplemented with 200 μg.mL^−1 ampicillin, 1 μM IPTG and impregnated with 1 mg.mL^−1 atrazine (90% atrazine w/w; Gesaprim 900 WG, Syngenta). […] The level of activity was determined by the rate at which the clarification occurred.
The entire coding region for both TrzNcc3.2 and wild-type TrzN were moved from the inducible, high-level expression vector pETcc2 into a low-level, constitutive expression vector (pCS150, Scott et al., 2009). The resultant vectors were used to transform E. coli JM109, DH10β, and BL21 λDE3 cells. The six resultant strains were tested for their rates of clearing using the atrazine clearing plate assay.

[6] = from 5 litres; Shapir et al. (2005); cited from earlier work
[7] = format: cell-based, E. coli strain BL21 λDE3; details: for Time to clear: 1% atrazine (w/v), 1 mM IPTG LB agar plates, 37° C., BL21 λDE3 pETcc2; for atrazine dechlorinase activity / clearing rate after substitution, compared with wild-type or parental gene: site-saturation and random mutagenesis
[8] = read-out: Km for atrazine; cited from earlier work

Molecule	Hydrolysis by TrzN cc3.2 [2]	Relative Activity in TrzN cc3.2 [2]	other results
superoxide dismutase	–	–	Kd [1]: 0.01 nM
CCNc1nc(Cl)nc(N(CC)CC)n1 [Trietazine, 6-chloro-N,N,N′-triethyl-1,3,5-triazine-2,4-diamine]	able to hydrolyse	0.04	–
CCN(CC)c1nc(Cl)nc(NC(C)C)n1 [Ipazine, 6-chloro-N,N-diethyl-N′-(1-methylethyl)-1,3,5-triazine-2,4-diamine]	able to hydrolyse	0.07	–
[Zn+2] [Zn^2+]	–	–	EC50 ([3]; read-out: ZnCl2 concentration at which half maximal activity was recovered): 2600 nM; Kd ([3]; read-out: dissociation constant for Zn^2+): 2600 nM
CC(C)Nc1nc(Cl)nc(NC(C)C)n1 [Propazine, 6-chloro-N,N′-bis(1-methylethyl)-1,3,5-triazine-2,4-diamine]	able to hydrolyse	0.86	–
CCNc1nc(NCC)nc(SC)n1 [Simetryn, N2,N4-diethyl-6-methylthio-1,3,5-triazine-2,4-diamine]	able to hydrolyse	0.57	Relative Activity in TrzN* [4]: 0.14
CCNc1nc(Cl)nc(NCC)n1 [Simazine, 6-chloro-N,N″-diethyl-1,3,5-triazine-2,4-diamine]	able to hydrolyse	1.36	Relative Activity in TrzN* [4]: 0.41
CCNc1nc(Cl)nc(NC(C)(C)C#N)n1 [Cyanozine, 2-[[4-chloro-6-(ethyamino)-1,3,5-triazin-2-yl]amino]-2-methylpropanenitrile]	able to hydrolyse	0.43	–
CCNc1nc(Cl)nc(NC(C)C)n1 [Atrazine, 6-chloro-N-ethyl-N′-(1-methylethyl)-1,3,5-triazine-2,4-diamine]	able to hydrolyse	1.36	Relative Activity in TrzN* [4]: 0.16
CSc1nc(NC(C)C)nc(NC(C)C)n1 [Prometryn, N2,N4-diisopropyl-6-methylthio-1,3,5-triazine-2,4-diamine]	able to hydrolyse	1	–
CCNc1nc(NC(C)C)nc(SC)n1 [Ametryn, N2-ethyl-N4-isopropyl-6-methylthio-1,3,5-triazine-2,4-diamine]	able to hydrolyse	1	Relative Activity in TrzN* [4]: 1
B1	–	–	Time to clear [5]: > 12 days; yield of partial purification [6]: 2.8 mg; Time to clear [7]: None; Time to clear ([7]; listed as trzNco): > 30 days; Km [8]: 20 µM
B2	–	–	atrazine dechlorinase activity / clearing rate after substitution, compared with wild-type or parental gene [7]: improved activities
B3	–	–	atrazine dechlorinase activity / clearing rate after substitution, compared with wild-type or parental gene [7]: improved activities
B4	–	–	clearing phenotype ([7]; D38X site saturation library in a L131P A159V background): apparently improved clearing phenotypes
B5	–	–	atrazine dechlorinase activity / clearing rate after substitution, compared with wild-type or parental gene [7]: improved activities
B6	–	–	atrazine dechlorinase activity / clearing rate after substitution, compared with wild-type or parental gene [7]: improved activities

Reference: patent US20110229450A1, “ENZYMES AND METHODS FOR DEGRADING S-TRIAZINES AND DIAZINES” (Commonwealth Scientific and industrial Research Organisation, priority 2008, published 2011)
